From US9586931B2 (Merck Sharp & Dohme Corp., priority 2012, dated 2017)
Values joined by “and” are separate entries in the source; they are usually repeats but may differ in a detail not shown here. Identical values can stand only once. Counter-ions that a name gives are not always drawn.

target: T1, recombinant human GST-Syk (Homo sapiens, UniProt P43405); test: Homogeneous Time-Resolved Fluorescence (HTRF) assay for the recombinant human Syk enzyme; assay type: biochemical; settings: recombinant human GST-Syk 5 pM, ATP 25 μM, 10-dose titration 10 μM to 0.508 nM; read-out: rhSYK Activity IC50
T1 construct: purchased Carna Biosciences 08-176
How it was run: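 Detection used time-resolved fluorescence 30 min after adding a quench mix (40 mM EDTA, 15 mM Tris pH 7.5, 0.01% Tween 20) containing 2 nM Europium anti-pTyr antibody and 70 nM streptavidin-APC. This followed 45 min of room-temperature peptide phosphorylation by recombinant GST-tagged human Syk.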

| IC50 | SMILES |
| --- | --- |
| 281 nM | Cc1cc(Nc2nccc(C(F)(F)F)n2)cc(-c2nc[nH]n2)c1 [Example 2.14, N-[3-methyl-5-(1H-1,2,4-triazol-3-yl)phenyl]-4-(trifluoromethyl)pyrimidin-2-amine] |
| 6.8 nM | Cc1cc(Nc2ncc(F)c(C(F)F)n2)cc(-c2cn(Cc3ccc(O)nc3)nn2)c1 [Example 32, 5-((4-(3-((4-(difluoromethyl)-5-fluoropyrimidin-2-yl)amino)-5-methylphenyl)-1H-1,2,3-triazol-1-yl)methyl)pyridin-2-ol] |
| 12.5 nM | Cc1cc(Nc2nccc(C(F)(F)F)n2)cc(-n2cc([C@]3(O)CC[C@@H](C(=O)O)CC3)nn2)c1 [Example 15.4, cis-4-hydroxy-4-[1-(3-methyl-5-{[4-(trifluoromethyl)pyrimidin-2-yl]amino}phenyl)-1H-1,2,3-triazol-4-yl]cyclohexanecarboxylic acid] |
| 3 nM | Cc1cc(Nc2cc(C(F)(F)F)ccn2)nc(-c2cn(C3CCC(C(=O)O)C(C)(C)C3)nn2)c1 (single isomer, unassigned) [Example 3.9, 2,2-dimethyl-4-[4-(4-methyl-6-{[4-(trifluoromethyl)pyridin-2-yl]amino}pyridin-2-yl)-1H-1,2,3-triazol-1-yl]cyclohexanecarboxylic acid] |
| 41.8 nM | Cc1cc(Nc2nccc(C(F)(F)F)n2)cc(-c2cn(CCC(=O)O)nn2)c1 [Example 5.60, 3-[4-(3-methyl-5-{[4-(trifluoromethyl)pyrimidin-2-yl]amino}phenyl)-1H-1,2,3-triazol-1-yl]propanoic acid] |
| 41 nM | Cc1cc(Nc2cc(C(F)(F)F)ccn2)nc(-c2cn(-c3ncccc3Cl)nn2)c1 [Example 6.1, 6-(1-(3-Chloropyridin-2-yl)-1H-1,2,3-triazol-4-yl)-4-methyl-N-(4-(trifluoromethyl)pyridin-2-yl)pyridin-2-amine] |
| 6.9 nM | Cc1cc(Nc2cc(C(F)(F)F)ccn2)nc(-c2cn(C[C@@H](C)CO)nn2)c1 [Example 5.81, (2R)-2-methyl-3-[4-(4-methyl-6-{[4-(trifluoromethyl)pyridin-2-yl]amino}pyridin-2-yl)-1H-1,2,3-triazol-1-yl]propan-1-ol] |
| 3.9 nM | Cc1cc(Nc2cc(C(F)F)ccn2)nc(-c2cn(C3CCCCC3O)nn2)c1 (single isomer, unassigned) [Example 7.23, 2-[4-(6-{[4-(difluoromethyl)pyridin-2-yl]amino}-4-methylpyridin-2-yl)-1H-1,2,3-triazol-1-yl]cyclohexanol] |
| 2.9 nM | Cc1cc(Nc2cc(C(F)(F)F)ccn2)nc(-c2cn(C(CO)c3ccc(C(N)=O)cc3)nn2)c1 (stereo not drawn) [Example 1.9, 4-{2-hydroxy-1-[4-(4-methyl-6-{[4-(trifluoromethyl)pyridin-2-yl]amino}pyridin-2-yl)-1H-1,2,3-triazol-1-yl]ethyl}benzamide] |
| 5.8 nM | Cc1cc(Nc2cc(C(F)(F)F)ccn2)nc(-c2cn(C3CCC(C(N)=O)C(C)(C)C3)nn2)c1 (single isomer, unassigned) [Example 1.8, 2,2-dimethyl-4-[4-(4-methyl-6-{[4-(trifluoromethyl)pyridin-2-yl]amino}pyridin-2-yl)-1H-1,2,3-triazol-1-yl]cyclohexanecarboxamide] |
| 626 nM | Cc1cc(Nc2cc(C(F)(F)F)ccn2)nc(-c2cn(C(C)C(=O)NCCc3cccc4ccccc34)nn2)c1 (stereo not drawn) [Example 1.44, 2-[4-(4-methyl-6-{[4-(trifluoromethyl)pyridin-2-yl]amino}pyridin-2-yl)-1H-1,2,3-triazol-1-yl]-N-(2-naphthalen-1-ylethyl)propanamide] |
| 28.3 nM | COc1ccnc(Nc2cc(C)cc(-c3cn(CC(C)(O)C(C)(C)O)nn3)c2)n1 (stereo not drawn) [Example 21.12, 1-(4-{3-[(4-methoxypyrimidin-2-yl)amino]-5-methylphenyl}-1H-1,2,3-triazol-1-yl)-2,3-dimethylbutane-2,3-diol] |
| 50.6 nM | COc1nc(Nc2cc(C)cc(-c3cn(CC(C)(O)C(C)(C)O)nn3)c2)ncc1Cl (stereo not drawn) [Example 21.16, 1-(4-{3-[(5-chloro-4-methoxypyrimidin-2-yl)amino]-5-methylphenyl}-1H-1,2,3-triazol-1-yl)-2,3-dimethylbutane-2,3-diol] |
| 8.8 nM | Cc1cc(Nc2cc(C(F)(F)F)ccn2)nc(-c2cn(CC(O)C(O)c3ccccc3)nn2)c1 (stereo not drawn) [Example 10.1, 3-(4-(4-Methyl-6-((4-(trifluoromethyl)pyridin-2-yl)amino)pyridin-2-yl)-1H-1,2,3-triazol-1-yl)-1-phenylpropane-1,2-diol] |
| 76.3 nM | COC(=O)CNC(=O)[C@H](C)n1cc(-c2cc(C)cc(Nc3cc(C(F)(F)F)ccn3)n2)nn1 [Example 1.1, Methyl N-{(2S)-2-[4-(4-methyl-6-{[4-(trifluoromethyl)pyridin-2-yl]amino}pyridin-2-yl)-1H-1,2,3-triazol-1-yl]propanoyl}glycinate trifluoroacetate] |
| 11.1 nM | Cc1cc(Nc2cc(C(F)(F)F)ccn2)nc(-c2cn(-c3ccc(C(=O)O)cc3)nn2)c1 [Example 7.1, 4-(4-(4-Methyl-6-((4-(trifluoromethyl)pyridin-2-yl)amino)pyridin-2-yl)-1H-1,2,3-triazol-1-yl)benzoic acid] |
| 7.1 nM | Cc1cc(Nc2nccc(C(F)F)n2)cc(-c2cn(CC3CNC(=O)O3)nn2)c1 (single isomer, unassigned) [Example 7.5, 5-((4-(3-((4-(difluoromethyl)pyrimidin-2-yl)amino)-5-methylphenyl)-1H-1,2,3-triazol-1-yl)methyl)oxazolidin-2-one] |
| 118 nM | Cc1cc(Nc2cc(C(F)(F)F)ccn2)nc(-c2cn(C(C)C(=O)N[C@H]3C[C@@H]3c3ccccc3)nn2)c1 (stereo partly drawn) [Example 1.40, 2-[4-(4-methyl-6-{[4-(trifluoromethyl)pyridin-2-yl]amino}pyridin-2-yl)-1H-1,2,3-triazol-1-yl]-N-[(1S,2R)-2-phenylcyclopropyl]propanamide] |
| 22.8 nM | Cc1cc(Nc2cc(C(F)(F)F)ccn2)nc(-c2cn([C@@H](C)C(=O)NCC(N)=O)nn2)c1 [Example 1.22, (2S)-N-(2-amino-2-oxoethyl)-2-[4-(4-methyl-6-{[4-(trifluoromethyl)pyridin-2-yl]amino}pyridin-2-yl)-1H-1,2,3-triazol-1-yl]propanamide] |
| 7.3 nM and 3.4 nM | Cc1cc(Nc2cc(C(F)(F)F)ccn2)nc(-c2cn(C[C@H](O)CO)nn2)c1 [Example 5.7, (2S)-3-[4-(4-methyl-6-{[4-(trifluoromethyl)pyridin-2-yl]amino}pyridin-2-yl)-1H-1,2,3-triazol-1-yl]propane-1,2-diol] |
| 8.2 nM | Cc1cc(Nc2cc(C(F)(F)F)ccn2)nc(-c2cn(CC3(O)CCS(=O)(=O)CC3)nn2)c1 [Example 4.29, 4-{[4-(4-methyl-6-{[4-(trifluoromethyl)pyridin-2-yl]amino}pyridin-2-yl)-1H-1,2,3-triazol-1-yl]methyl}tetrahydro-2H-thiopyran-4-ol 1,1-dioxide] |
| 52.9 nM | Cc1cc(Nc2cc(C(F)(F)F)ccn2)nc(-c2cn(CC(=O)O)nn2)c1 [Example 5.88, [4-(4-methyl-6-{[4-(trifluoromethyl)pyridin-2-yl]amino}pyridin-2-yl)-1H-1,2,3-triazol-1-yl]acetic acid] |
| 38.1 nM | Cc1cc(Nc2cc(C(F)(F)F)ccn2)nc(-c2cn(CCC(=O)O)nn2)c1 [Example 5.9, 3-[4-(4-methyl-6-{[4-(trifluoromethyl)pyridin-2-yl]amino}pyridin-2-yl)-1H-1,2,3-triazol-1-yl]propanoic acid] |
| 23.1 nM | Cc1cc(Nc2cc(C(C)F)ccn2)nc(-c2cn(CC(C)(O)C(C)(C)O)nn2)c1 (stereo not drawn) [Example 21.17, 1-[4-(6-{[4-(1-fluoroethyl)pyridin-2-yl]amino}-4-methylpyridin-2-yl)-1H-1,2,3-triazol-1-yl]-2,3-dimethylbutane-2,3-diol] |
| 9.9 nM | Cc1cc(Nc2ncc(F)c(C(F)F)n2)cc(-c2cn(C3CCCCC3O)nn2)c1 (single isomer, unassigned) [Example 7.30, 2-[4-(3-{[4-(difluoromethyl)-5-fluoropyrimidin-2-yl]amino}-5-methylphenyl)-1H-1,2,3-triazol-1-yl]cyclohexanol] |
| 35.1 nM | Cc1cc(Nc2nccc(C(F)(F)F)n2)cc(-c2cn(C3COCC3O)nn2)c1 (single isomer, unassigned) [Example 4.8, 4-[4-(3-methyl-5-{[4-(trifluoromethyl)pyrimidin-2-yl]amino}phenyl)-1H-1,2,3-triazol-1-yl]tetrahydrofuran-3-ol] |
| 12.3 nM | Cc1cc(Nc2ncc(F)c(C(F)F)n2)cc(-c2cn(CC3OC(=O)NC3C)nn2)c1 (single isomer, unassigned) [Example 7.39, 5-{[4-(3-{[4-(difluoromethyl)-5-fluoropyrimidin-2-yl]amino}-5-methylphenyl)-1H-1,2,3-triazol-1-yl]methyl}-4-methyl-1,3-oxazolidin-2-one] |
| 5.9 nM | Cc1cc(Nc2cc(C(F)F)ccn2)nc(-c2cn(CC(C)(O)CO)nn2)c1 (stereo not drawn) [Example 21.40, 3-(4-(6-((4-(difluoromethyl)pyridin-2-yl)amino)-4-methylpyridin-2-yl)-1H-1,2,3-triazol-1-yl)-2-methylpropane-1,2-diol] |
| 435 nM | Cc1cc(Nc2cc(C(F)(F)F)ccn2)nc(-c2cn(C(C)C(=O)NCC(c3ccc(C(F)(F)F)cc3)N3CCOCC3)nn2)c1 (stereo not drawn) [Example 1.52, 2-[4-(4-methyl-6-{[4-(trifluoromethyl)pyridin-2-yl]amino}pyridin-2-yl)-1H-1,2,3-triazol-1-yl]-N-{2-morpholin-4-yl-2-[4-(trifluoromethyl)phenyl]ethyl}propanamide] |

same assay, conditions: rhSYK Activity IC50, recombinant human GST-Syk 5 pM, ATP 25 μM, 10-dose titration 10 μM to 0.508 nM

| IC50 [nM] | SMILES |
| --- | --- |
| 76.8 | Cc1cc(Nc2nccc(C(F)(F)F)n2)cc(-c2cn(CCNC(N)=O)nn2)c1 [Example 5.56, 1-{2-[4-(3-methyl-5-{[4-(trifluoromethyl)pyrimidin-2-yl]amino}phenyl)-1H-1,2,3-triazol-1-yl]ethyl}urea] |
